Experimental data taken from patent US12509431B2, “1,4-dihydroquinazolinone compounds and uses thereof” (Edgewise Therapeutics, Inc., priority 2022, dated 2025).

Experiments:
Type in all cases: biochemical
[1] = system: Rabbit Skeletal myofibrils (rabbit psoas muscle); assay: Myofibril ATPase assay (PK/LDH NADH-coupled), skeletal myofibrils
Summary of the method: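 Rabbit psoas myofibrils in pCa (PIPES/CaCl2/EGTA, pH 7.0) buffer; ADP coupled via PK/LDH to NADH loss, read at 340 nm every 1.5–2 min for 75 min. Slopes normalized to vehicle (100%) and fit to 4-parameter logistic for EC25, plus EC50 for inhibitors.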

[2] = molecular target: T1, Porcine Ventricle myofibrils (left ventricle of Yucatan minipigs) (Sus scrofa, UniProt P79293); assay: Myofibril ATPase assay (PK/LDH NADH-coupled), ventricle myofibrils
T1 construct: Myofibrils from porcine cardiac muscle was isolated from the left ventricle of Yucatan minipigs; tissue Exemplar Genetics; host or cells: left ventricle of Yucatan minipigs
T1 sequence (P79293 whole entry): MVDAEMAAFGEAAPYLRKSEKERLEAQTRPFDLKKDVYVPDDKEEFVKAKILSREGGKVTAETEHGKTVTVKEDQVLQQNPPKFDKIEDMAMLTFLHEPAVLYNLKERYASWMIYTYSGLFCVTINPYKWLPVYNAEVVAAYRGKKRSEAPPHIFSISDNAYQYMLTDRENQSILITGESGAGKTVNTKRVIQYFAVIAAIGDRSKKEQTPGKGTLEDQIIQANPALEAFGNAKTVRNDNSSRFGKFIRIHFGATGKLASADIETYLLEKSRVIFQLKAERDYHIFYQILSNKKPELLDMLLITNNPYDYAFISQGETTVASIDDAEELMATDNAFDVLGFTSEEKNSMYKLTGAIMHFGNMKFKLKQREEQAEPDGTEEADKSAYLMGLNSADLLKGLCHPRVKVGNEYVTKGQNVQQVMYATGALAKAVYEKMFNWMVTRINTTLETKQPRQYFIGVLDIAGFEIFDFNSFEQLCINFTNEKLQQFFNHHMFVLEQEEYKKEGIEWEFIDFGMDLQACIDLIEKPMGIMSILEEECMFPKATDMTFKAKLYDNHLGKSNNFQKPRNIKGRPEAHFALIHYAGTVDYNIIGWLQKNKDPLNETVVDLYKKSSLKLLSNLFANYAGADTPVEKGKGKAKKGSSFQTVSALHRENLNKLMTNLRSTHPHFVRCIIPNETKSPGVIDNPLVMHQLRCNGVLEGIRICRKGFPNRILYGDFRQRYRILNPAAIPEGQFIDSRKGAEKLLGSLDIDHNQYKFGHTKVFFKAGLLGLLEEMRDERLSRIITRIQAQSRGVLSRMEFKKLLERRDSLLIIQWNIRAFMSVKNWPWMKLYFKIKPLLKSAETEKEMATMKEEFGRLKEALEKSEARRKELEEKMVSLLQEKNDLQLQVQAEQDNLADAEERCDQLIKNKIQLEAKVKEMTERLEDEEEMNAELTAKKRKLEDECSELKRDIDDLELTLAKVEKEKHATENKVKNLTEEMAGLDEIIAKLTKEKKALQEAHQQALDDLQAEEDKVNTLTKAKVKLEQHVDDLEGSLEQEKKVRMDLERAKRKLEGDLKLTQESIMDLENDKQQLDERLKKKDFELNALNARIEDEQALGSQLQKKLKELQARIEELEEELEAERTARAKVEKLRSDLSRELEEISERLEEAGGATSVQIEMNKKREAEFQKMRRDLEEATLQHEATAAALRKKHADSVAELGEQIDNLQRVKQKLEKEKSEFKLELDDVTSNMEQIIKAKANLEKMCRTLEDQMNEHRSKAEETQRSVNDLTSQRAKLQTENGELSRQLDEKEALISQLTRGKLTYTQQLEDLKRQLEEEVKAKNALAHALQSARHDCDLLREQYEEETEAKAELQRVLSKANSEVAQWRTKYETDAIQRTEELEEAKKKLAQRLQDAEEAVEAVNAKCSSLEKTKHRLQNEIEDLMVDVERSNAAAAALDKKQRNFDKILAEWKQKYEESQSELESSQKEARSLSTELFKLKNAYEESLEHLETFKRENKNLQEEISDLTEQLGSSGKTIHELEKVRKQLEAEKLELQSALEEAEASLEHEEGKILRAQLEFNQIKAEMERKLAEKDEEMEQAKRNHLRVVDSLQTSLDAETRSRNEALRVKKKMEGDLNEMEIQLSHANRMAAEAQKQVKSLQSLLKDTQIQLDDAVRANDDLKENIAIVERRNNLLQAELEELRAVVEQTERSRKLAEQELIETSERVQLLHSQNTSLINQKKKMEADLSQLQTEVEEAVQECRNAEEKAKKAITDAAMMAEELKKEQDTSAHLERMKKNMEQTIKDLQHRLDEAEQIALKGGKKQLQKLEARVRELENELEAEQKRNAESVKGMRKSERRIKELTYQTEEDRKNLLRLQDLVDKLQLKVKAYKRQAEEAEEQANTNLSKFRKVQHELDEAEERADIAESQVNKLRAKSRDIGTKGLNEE
Summary of the method: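 Yucatan minipig left-ventricle myofibrils; ATPase measured by PK/LDH-coupled NADH loss at 340 nm, read every 1.5-2 min for 75 min. Slopes normalized to vehicle (100%) and fit to 4-parameter logistic model; EC25 and, for inhibitors, EC50 calculated.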

Porcine Atria myofibrils = assay: Myofibril ATPase assay (PK/LDH NADH-coupled), atria myofibrils
Summary of the method: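 Porcine atrial myofibril ATPase followed via PK/LDH-coupled NADH depletion, absorbance at 340 nm read every 1.5-2 min over 75 min. Slopes (mAU/min) normalized to vehicle as 100% and fit to a 4-parameter logistic; EC25% derived, plus EC50% for inhibitors.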

Rabbit Psoas IC25 ([1]; Table 8) [µM] | Porcine Ventricle IC25 ([2]; Table 8) [µM] | Porcine Atria IC25 (Porcine Atria myofibrils; Table 8) [µM] | Rabbit Psoas IC25 ([1]; Table 7) [µM] | Porcine Ventricle IC25 ([2]; Table 7) [µM] | Porcine Atria IC25 (Porcine Atria myofibrils; Table 7) [µM] | SMILES
1.02 | 1.56 | 0.58 | – | – | – | C[C@@H](NC(=O)CN1C(=O)Nc2ccc(F)cc2C12CC2)c1ccc(C#N)nn1 [Compound B334]
100.00 | 100.00 | 9.42 | – | – | – | C[C@H](NC(=O)CN1C(=O)Nc2ccc(F)cc2C12CC2)c1ccc(C#N)nn1 [Compound B335]
0.17 | 0.27 | 0.10 | – | – | – | C[C@@H](NC(=O)CN1C(=O)Nc2ccc(F)cc2C12CC2)c1cnc(C#N)cn1 [Compound B336]
100.00 | 7.01 | 1.01 | – | – | – | C[C@H](NC(=O)CN1C(=O)Nc2ccc(F)cc2C12CC2)c1cnc(C#N)cn1 [Compound B337]
17.15 | 1.67 | 0.08 | – | – | – | Cc1nc([C@@H](C)NC(=O)CN2Cc3c(ccc(F)c3F)NC2=O)cnc1C#N [Compound B338]
100.00 | 100.00 | 3.80 | – | – | – | Cc1nc(C(C)NC(=O)CN2Cc3c(ccc(F)c3F)NC2=O)no1 (stereo not drawn) [Compound B340]
1.68 | 0.35 | 0.73 | – | – | – | C[C@@H](NC(=O)CN1Cc2c(ccc(F)c2F)NC1=O)c1ncnc(C#N)c1F [Compound B341]
2.45 | 4.85 | 0.93 | – | – | – | C[C@H](NC(=O)CN1Cc2c(ccc(F)c2F)NC1=O)c1ncnc(C#N)c1F [Compound B342]
100.00 | 100.00 | 4.12 | – | – | – | Cc1ncnc([C@@H](C)NC(=O)CN2Cc3c(ccc(F)c3F)NC2=O)c1F [Compound B343]
2.78 | 8.84 | 1.29 | – | – | – | Cc1ncnc([C@H](C)NC(=O)CN2Cc3c(ccc(F)c3F)NC2=O)c1F [Compound B344]
100.00 | 100.00 | 57.06 | – | – | – | Cc1nnc(C(C)NC(=O)CN2Cc3c(ccc(F)c3F)NC2=O)o1 (stereo not drawn) [Compound B345]
59.27 | 1.63 | 0.22 | – | – | – | Cc1ncc(F)c([C@@H](C)NC(=O)CN2Cc3c(ccc(F)c3F)NC2=O)n1 [Compound B346]
100.00 | 100.00 | 100.00 | – | – | – | Cc1ncc(F)c([C@H](C)NC(=O)CN2Cc3c(ccc(F)c3F)NC2=O)n1 [Compound B347]
9.36 | 6.79 | 10.17 | – | – | – | Cc1ncc(C#N)nc1[C@@H](C)NC(=O)CN1Cc2c(ccc(F)c2F)NC1=O [Compound B348]
5.32 | 0.83 | 0.22 | – | – | – | Cc1ncc(C#N)nc1[C@H](C)NC(=O)CN1Cc2c(ccc(F)c2F)NC1=O [Compound B349]
0.62 | 0.50 | 0.30 | – | – | – | O=C(CN1Cc2c(ccc(F)c2F)NC1=O)N[C@@H]1CCc2cc(F)cnc21 [Compound B350]
2.49 | 2.24 | 1.99 | – | – | – | Cc1nc([C@H](C)NC(=O)CN2Cc3c(ccc(F)c3F)NC2=O)ncc1C#N [Compound B353]
68.36 | 3.83 | 0.21 | – | – | – | Cc1nc(C#N)cnc1[C@@H](CO)NC(=O)CN1Cc2c(ccc(F)c2F)NC1=O [Compound B354]
0.07 | 0.14 | 0.05 | – | – | – | Cc1nc(C#N)cnc1[C@H](CO)NC(=O)CN1Cc2c(ccc(F)c2F)NC1=O [Compound B355]
0.13 | 0.33 | 0.10 | – | – | – | C[C@H](NC(=O)CN1Cc2cc(F)c(F)cc2NC1=O)c1ncc(C#N)cc1F [Compound B358]
13.87 | 100.00 | 4.96 | – | – | – | Cc1nsc([C@@H](C)NC(=O)CN2Cc3c(ccc(F)c3F)NC2=O)n1 [Compound B359]
100.00 | 9.49 | 44.86 | – | – | – | C[C@@H](NC(=O)CN1Cc2c(ccc(F)c2F)NC1=O)c1cc2c(cn1)N(C)CCO2 [Compound B360]

Rabbit Psoas IC25 ([1]; Table 8) [µM] | Porcine Ventricle IC25 ([2]; Table 8) [µM] | Porcine Atria IC25 (Porcine Atria myofibrils; Table 8) [µM] | Rabbit Psoas IC25 ([1]; Table 7) [µM] | Porcine Ventricle IC25 ([2]; Table 7) [µM] | Porcine Atria IC25 (Porcine Atria myofibrils; Table 7) [µM] | SMILES
100.00 | 100.00 | 100.00 | – | – | – | C[C@H](NC(=O)CN1Cc2c(ccc(F)c2F)NC1=O)c1cc2c(cn1)N(C)CCO2 [Compound B361]
0.52 | 1.04 | 100.00 | – | – | – | O=C(CN1Cc2c(ccc(F)c2F)NC1=O)N[C@@H]1COCc2cc(F)cnc21 [Compound B362]
100.00 | 100.00 | 100.00 | – | – | – | O=C(CN1Cc2c(ccc(F)c2F)NC1=O)N[C@H]1COCc2cc(F)cnc21 [Compound B363]
100.00 | 100.00 | 20.41 | – | – | – | C[C@@H](NC(=O)CN1Cc2c(ccc(F)c2F)NC1=O)c1cc2c(cn1)OCCN2 [Compound B364]
100.00 | 100.00 | 100.00 | – | – | – | C[C@H](NC(=O)CN1Cc2c(ccc(F)c2F)NC1=O)c1cc2c(cn1)OCCN2 [Compound B365]
– | – | – | 100 | 100 | 70.94 | N#Cc1cnc2c(c1)CC[C@H]2NC(=O)CN1C(=O)Nc2cccnc2C12CC2 [Compound N1]
– | – | – | 4.055 | 34.26 | 17.14 | N#Cc1cnc2c(c1)CC[C@@H]2NC(=O)CN1C(=O)Nc2cccnc2C12CC2 [Compound N2]
– | – | – | 18.85 | 100 | 2.59 | C[C@@H](NC(=O)CN1C(=O)Nc2ccc(C#N)nc2C12CC2)c1ncc(C#N)cc1F [Compound N3]
– | – | – | 0.1067 | 0.474 | 0.07 | C[C@H](NC(=O)CN1C(=O)Nc2ccc(C#N)nc2C12CC2)c1ncc(C#N)cc1F [Compound N4]
– | – | – | 0.0178 | 0.1154 | 0.07 | N#Cc1cc(F)c2c(c1)OC[C@H]2NC(=O)CN1Cc2c(ccnc2C(F)(F)F)NC1=O [Compound N5]
– | – | – | 2.918 | 38.22 | 2.82 | N#Cc1cc(F)c2c(c1)OC[C@@H]2NC(=O)CN1Cc2c(ccnc2C(F)(F)F)NC1=O [Compound N6]
– | – | – | 0.0355 | 0.266 | 0.11 | N#Cc1nccc2c1CN(CC(=O)N[C@@H]1COc3cc(F)cc(F)c31)C(=O)N2 [Compound N7]
– | – | – | 0.3271 | 13.21 | 2.20 | N#Cc1nccc2c1CN(CC(=O)N[C@H]1COc3cc(F)cc(F)c31)C(=O)N2 [Compound N8]
– | – | – | 0.4579 | 13.44 | 0.82 | O=C(CN1Cc2cnccc2NC1=O)N[C@@H]1COc2cc(F)cc(F)c21 [Compound N10]
– | – | – | 100 | 100 | 100.00 | O=C(CN1Cc2cnccc2NC1=O)N[C@H]1COc2cc(F)cc(F)c21 [Compound N11]
– | – | – | 100 | 100 | 7.63 | C[C@@H](NC(=O)CN1C(=O)Nc2ccc(C#N)nc2C12CC2)c1ccc(F)cc1F [Compound N12]
– | – | – | 0.063 | 0.8569 | 0.07 | C[C@H](NC(=O)CN1C(=O)Nc2ccc(C#N)nc2C12CC2)c1ccc(F)cc1F [Compound N13]
– | – | – | 100 | 100 | 1.16 | C[C@@H](NC(=O)CN1C(=O)Nc2ccc(C#N)nc2C12CC2)c1ncc(F)cc1F [Compound N14]
– | – | – | 0.197 | 2.788 | 0.07 | C[C@H](NC(=O)CN1C(=O)Nc2ccc(C#N)nc2C12CC2)c1ncc(F)cc1F [Compound N15, 2-{6′-Cyano-2′-oxo-1′H-spiro[cyclopropane-1,4′-pyrido[3,2-d]pyrimidin]-3′-yl}-N-[(1S)-1-(3,5-difluoropyridin-2-yl)ethyl]acetamide]
– | – | – | 1.645 | 100 | 0.60 | C[C@@H](NC(=O)CN1C(=O)Nc2cccnc2C12CC2)c1ccc(C#N)cn1 [Compound N16]
– | – | – | 100 | 100 | 75.12 | C[C@H](NC(=O)CN1C(=O)Nc2cccnc2C12CC2)c1ccc(C#N)cn1 [Compound N17]
